# In patent publication US10730883B2 (AbbVie Inc., priority 2015, dated 2020):
# Assays:
# [1] = Solid state accelerated stability study; format: physicochemical; details: for Growth of degradation products: open and closed glass vials
# Description: Samples (approximately 1 mg to 2 mg) of the solid state form were weighed into glass vials and tested as described below.
# [2] = Solubility of solid state forms; format: physicochemical; details: Amorphous Freebase: relative to the corresponding crystalline forms
# [3] = Chemical stability of solid state forms in closed vials at controlled temperature and relative humidity; format: physicochemical
# Description: (§1) The Amorphous Freebase, however, is hygroscopic and can comprise as much as 12% by weight water at 25° C./90% relative humidity. Environmental controls potentially are required to ensure appropriate control of potency and water content during storage, dispensing, and handling of the Amorphous Freebase.
# (§2) The Tartrate Hydrate, however, potentially will convert to an amorphous tartrate below 10% relative humidity, when heated, or when compressed or under shear.
# [4] = Bioavailability of solid state forms; format: in vivo; details: relative to the corresponding crystalline forms
# [5] = Hygroscopicity / moisture sorption isotherm of solid state forms; format: physicochemical
# Source text: FIG. 6A is a moisture sorption isotherm corresponding to the Amorphous Freebase (via dehydration).
# FIG. 6C is a moisture sorption isotherm corresponding to the Tartrate Hydrate.
# FIG. 6D is a moisture sorption isotherm corresponding to the Freebase Anhydrate Form D.
# In one embodiment, the Tartrate Hydrate has a moisture sorption isotherm profile showing a weight gain of about 1% to about 2% when relative humidity is increased from about 10% relative humidity to about 90% relative humidity at a temperature of 25° C.
# [6] = Moisture sorption isotherm; format: physicochemical; details: 90% relative humidity at 25° C.
# Description: Moisture vapor isotherm data were collected with a DVS Advantage (Surface Measurement Systems Ltd, Alperton, United Kingdom). The sample powder (5 mg to 20 mg) was loaded on a tared pan of the DVS Advantage. The moisture sorption isotherm data were collected from 30-0-90-0-30% relative humidity in 10% relative humidity intervals. For each step, the dm/dt criteria was 0.001% over 5 minutes, a minimum dm/dt time of 30 minutes, and a maximum dm/dt of 120 minutes. Data was collected isothermally at 25° C. with a nitrogen flow rate of 200 cm^3/minute. The post DVS sample was kept at approximately 30% relative humidity before PXRD analysis.
# [7] = Stability of solid state forms to light and peroxide; format: physicochemical
# Description: as §1, §2
# [8] = Equilibrium solubility; format: physicochemical
# Description: After equilibration, the mixtures were inspected to assure that the amount of excess solid was sufficient to permit re-characterization. […] The pH of aqueous suspensions was determined after equilibration. The solid phase was separated from the liquid phase by centrifugation at 3300 rpm at equilibration temperatures (i.e., 25° C. or 37° C.). The supernatant was then filtered (13 mm Acrodisc® syringe filter with 0.45μ GHP membrane, Pall® Life Sciences, Ann Arbor, Mich.) to discard the initial 2 mL (to saturate filter) and capture the last 1 mL for analysis. The filtrate was diluted as needed for quantification of the material studied by HPLC method (as detailed elsewhere herein). The physical form of the recovered solid was characterized by powder X-ray diffraction to examine whether or not phase change had occurred
# [9] = general statement on the solid state form
smiles,measurement,setting,value
"CC[C@@H]1CN(C(=O)NCC(F)(F)F)C[C@@H]1c1cnc2cnc3[nH]ccc3n12 [Amorphous Freebase, (3S,4R)-3-ethyl-4-(3H-imidazo[1,2-a]pyrrolo[2,3-e]pyrazin-8-yl)-N-(2,2,2-trifluoroethyl)pyrrolidine-1-carboxamide]",Growth of degradation products,"[1]; 40° C./75% relative humidity, up to 24 weeks",no growth of degradation products
same,Growth of degradation products,"[1]; 50° C./75% relative humidity, up to six weeks",no growth of degradation products
same,chemical stability,[1]; solid state accelerated stability study,acceptable
same,"Change in attributes evaluated (description, crystal form, assay, impurities and water content)",[1]; storage conditions of the accelerated stability study,No material change
same,Solubility,[2],greater solubility
same,degradation observed in closed vials,"[3]; closed vials, 30° C./65% relative humidity and 40° C./75% relative humidity over 12 weeks, 50° C./75% relative humidity over 6 weeks",no degradation
same,chemical stability,[3]; [9],acceptable chemical stability
same,bioavailability,[4],increased bioavailability
same,water content (hygroscopicity),[5]; 25° C./90% relative humidity,≤ 12 % by weight
same,hygroscopicity,[5]; [9],hygroscopic
same,Moisture sorption (reversibly sorbs up to),[6],up to 13%
same,stability to light and peroxide,[7],acceptable stability
same,Solubility,[8]; FasSIF (pH 6.5 at 37° C.),1140 µg/mL
same,Solubility,[8]; FedSIF (pH 5.0 at 37° C.),2130 µg/mL
same,Solubility,[8]; pH 1 at 25° C.,>3500 µg/mL
same,Solubility,[8]; pH 7.4 at 25° C.,680 µg/mL
